# Test results taken from PMC8330100, “Similarities and differences in the localization, trafficking, and function of P-glycoprotein in MDR1-EGFP-transduced rat versus human brain capillary endothelial cell lines” (Fluids and Barriers of the CNS, 2021).
# What was measured:
# Pgp in RBE4-WT cells = experiment: Rhodamine 123 uptake/accumulation assay, RBE4-WT cells; assay type: cell-based, rat
# Method: The functionality of Pgp in RBE4-WT, RBE4-MDR1-EGFP, hCMEC/D3-WT, hCMEC/D3-MDR1-EGFP cells, and primary rBCECs was analyzed by measuring the uptake of the fluorescent Pgp substrate Rho123 (Sigma-Aldrich). Cells were grown on 6-well plates and cultured for seven days in the presence or absence of doxycycline (1 µg/mL, Biochrom). […] Afterward, Rho123 (5 µM, dissolved in ethanol) was added and cells were incubated for another two hours. Rho123 transport was terminated by washing the cells twice with ice-cold PBS. Intracellular Rho123 concentration was determined by cell lysis in standard lysis buffer (25 mM Tris, 50 mM NaCl, 0.5% (w/v) sodium deoxycholate, 0.5% (w/v) Triton X-100) and measurement of fluorescence intensity with the FLUOstar OPTIMA (ex.: 485 nm, em.: 520 nm; BMG Labtech). Protein concentrations were determined using a BCA assay kit (Thermo Fisher Scientific). Rho123 uptake was obtained for each condition in triplicates and calculated as absolute fluorescence per mg protein. Additionally, Pgp functionality was expressed as multidrug resistance activity factor (MAF) as described by Huber et al.. This factor describes Pgp efflux activity based on differences in intracellular Rho123 accumulation in cells after Pgp inhibition compared to cells with active Pgp-mediated efflux. Thus, higher MAF values correlate with increased Pgp activity. For better comparison, differences in Rho123 accumulation are normalized to intracellular Rho123 levels in inhibitor-treated cells. MAF values for Pgp were calculated according to Huber et al. 2012 utilizing the following equation: MAF (%) = 100 · (MFITQ − MFI0)/(MFITQ) where MFITQ and MFI0 represent the mean fluorescence intensity of intracellular Rho123 in tariquidar (TQ)-treated and non-treated cells, respectively.
# [1] = target: T1, Pgp in RBE4-MDR1-EGFP cells (Homo sapiens, UniProt P08183); experiment: Rhodamine 123 uptake/accumulation assay, RBE4-MDR1-EGFP cells; assay type: cell-based, rat; settings: RBE4-MDR1-EGFP in the presence of doxycycline; tariquidar 0.5 µM
# T1 construct: expressed in transfected cells; host or cells: RBE4 (rat BCEC line), lentiviral transduction, doxycycline-inducible
# Method: Piet Borst (The Netherlands Cancer Institute, Amsterdam, The Netherlands) as template. The linker sequence in the vector fusing EGFP and MDR1 consists of 36 bp ([…]). hCMEC/D3-WT, RBE4-WT, and hCMEC/D3-MDR1-EGFP cell lines were cultivated as previously described. The same culture conditions were used for the newly prepared RBE4-MDR1-EGFP cell line. As described previously, hydrocortisone (1.4 µM) was added to the culture medium to enhance the expression and functionality of Pgp and transendothelial resistance. All endothelial cell lines were grown on rat-tail collagen I (60 µg/mL, Gibco) coated 100 mm cultures dishes or permeable membrane supports at 37 °C and 5% CO2. Pgp-EGFP protein expression in MDR1-EGFP transduced cells was induced by cell cultivation in medium containing […] doxycycline. Expression of Pgp-EGFP was regularly verified by observing the cells with an inverted fluorescence microscope. Doxycycline supplementation of the medium was maintained during the whole culturing period of Pgp-EGFP expressing cells. For experiments, hCMEC/D3 and RBE4 cells were seeded in a density of 50,000 cells/cm^2. Immortalized MDR1 transfected porcine kidney LLC-PK1 (LLC-MDR1) cells, which were used as a reference standard for vectorial transport experiments, were kindly provided by Prof. Piet Borst. […]
smiles,measurement,setting,value
"COC(=O)c1ccccc1-c1c2ccc(=N)cc-2oc2cc(N)ccc12 [Rho123, rhodamine 123]",intracellular Rho123 accumulation,"Pgp in RBE4-WT cells; Rho123 5 µM, 2 h, without tariquidar","86,513 ± 2021 absolute fluorescence per mg p"
same,multidrug resistance activity factor (MAF) from intracellular Rho123 accumulation,Pgp in RBE4-WT cells; with vs without tariquidar 0.5 µM,37.5% ± 4.2
same,increase of Rho123 efflux (accumulation in absence vs presence of tariquidar),[1],~ 7 fold
